Reference: PubChem BioAssay AID1919009 (Molecular Pharmacology Branch, DTP, NCI, 2023)

Test system: K24384-001-R-PDC complex spheroid growth
Assay: Anticancer human tumor K24384-001-R-PDC patient-derived pancreatic adenocarcinoma cell line growth inhibition [AhR]
Conditions: for IC50: curve of first compound; for viability, T/C: stronger effect = lower value
Procedure, shortened: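 Spheroids combined tumor cells with HUVEC endothelial cells and human MSCs as stroma. AhR antagonists were paired with standard or investigational drugs, each dosed in half-log steps down from near clinical Cmax, or from 10 microM where Cmax was unknown.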
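For viability, T/C in this document: percent of DMSO vehicle-treated spheroid viability set as 100%.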

## CC(C)c1c(-c2ccccc2)nc2c(C#N)c[nH]n2c1=O + Cc1cncc(-c2nc(NCCc3c[nH]c4ccccc34)c3ncn(C(C)C)c3n2)c1
Second compound 0.1 µM
  IC50: > 10 µM
Second compound 0.316 µM
  IC50: > 10 µM
Second compound 1 µM
  IC50: > 10 µM
Second compound 3.16 µM
  IC50: > 10 µM
Second compound 10 µM
  IC50: < 0.0316 µM
Second compound 0.1 µM, first compound 0.0316 µM
  viability, T/C: 108%
Second compound 0.1 µM, first compound 0.1 µM
  viability, T/C: 110%
Second compound 0.1 µM, first compound 0.316 µM
  viability, T/C: 106%
Second compound 0.1 µM, first compound 1 µM
  viability, T/C: 102%
Second compound 0.1 µM, first compound 3.16 µM
  viability, T/C: 85.6%
Second compound 0.1 µM, first compound 10 µM
  viability, T/C: 85.8%
Second compound 0.316 µM, first compound 0.0316 µM
  viability, T/C: 104%
Second compound 0.316 µM, first compound 0.1 µM
  viability, T/C: 101%
Second compound 0.316 µM, first compound 0.316 µM
  viability, T/C: 115%
Second compound 0.316 µM, first compound 1 µM
  viability, T/C: 95.7%
Second compound 0.316 µM, first compound 3.16 µM
  viability, T/C: 87.5%
Second compound 0.316 µM, first compound 10 µM
  viability, T/C: 77.3%
Second compound 1 µM, first compound 0.0316 µM
  viability, T/C: 108%
Second compound 1 µM, first compound 0.1 µM
  viability, T/C: 110%
Second compound 1 µM, first compound 0.316 µM
  viability, T/C: 94.5%
Second compound 1 µM, first compound 1 µM
  viability, T/C: 95.1%
Second compound 1 µM, first compound 3.16 µM
  viability, T/C: 99%
Second compound 1 µM, first compound 10 µM
  viability, T/C: 69.1%
Second compound 3.16 µM, first compound 0.0316 µM
  viability, T/C: 83.7%
Second compound 3.16 µM, first compound 0.1 µM
  viability, T/C: 91.4%
Second compound 3.16 µM, first compound 0.316 µM
  viability, T/C: 82.6%
Second compound 3.16 µM, first compound 1 µM
  viability, T/C: 61.9%
Second compound 3.16 µM, first compound 3.16 µM
  viability, T/C: 70.4%
Second compound 3.16 µM, first compound 10 µM
  viability, T/C: 77.3%
Second compound 10 µM, first compound 0.0316 µM
  viability, T/C: 7.78%
Second compound 10 µM, first compound 0.1 µM
  viability, T/C: 6.78%
Second compound 10 µM, first compound 0.316 µM
  viability, T/C: 7.75%
Second compound 10 µM, first compound 1 µM
  viability, T/C: 8.55%
Second compound 10 µM, first compound 3.16 µM
  viability, T/C: 7.71%
Second compound 10 µM, first compound 10 µM
  viability, T/C: 10.2%
